ChEMBL document CHEMBL1909046, “DrugMatrix in vitro pharmacology data”

Experiments:
[1] = biological target: Cytochrome P450 2D6 (Homo sapiens, UniProt P10635)
[2] = biological target: T1, Androgen receptor (Rattus norvegicus, UniProt P15207)
T1 sequence (P15207 whole entry): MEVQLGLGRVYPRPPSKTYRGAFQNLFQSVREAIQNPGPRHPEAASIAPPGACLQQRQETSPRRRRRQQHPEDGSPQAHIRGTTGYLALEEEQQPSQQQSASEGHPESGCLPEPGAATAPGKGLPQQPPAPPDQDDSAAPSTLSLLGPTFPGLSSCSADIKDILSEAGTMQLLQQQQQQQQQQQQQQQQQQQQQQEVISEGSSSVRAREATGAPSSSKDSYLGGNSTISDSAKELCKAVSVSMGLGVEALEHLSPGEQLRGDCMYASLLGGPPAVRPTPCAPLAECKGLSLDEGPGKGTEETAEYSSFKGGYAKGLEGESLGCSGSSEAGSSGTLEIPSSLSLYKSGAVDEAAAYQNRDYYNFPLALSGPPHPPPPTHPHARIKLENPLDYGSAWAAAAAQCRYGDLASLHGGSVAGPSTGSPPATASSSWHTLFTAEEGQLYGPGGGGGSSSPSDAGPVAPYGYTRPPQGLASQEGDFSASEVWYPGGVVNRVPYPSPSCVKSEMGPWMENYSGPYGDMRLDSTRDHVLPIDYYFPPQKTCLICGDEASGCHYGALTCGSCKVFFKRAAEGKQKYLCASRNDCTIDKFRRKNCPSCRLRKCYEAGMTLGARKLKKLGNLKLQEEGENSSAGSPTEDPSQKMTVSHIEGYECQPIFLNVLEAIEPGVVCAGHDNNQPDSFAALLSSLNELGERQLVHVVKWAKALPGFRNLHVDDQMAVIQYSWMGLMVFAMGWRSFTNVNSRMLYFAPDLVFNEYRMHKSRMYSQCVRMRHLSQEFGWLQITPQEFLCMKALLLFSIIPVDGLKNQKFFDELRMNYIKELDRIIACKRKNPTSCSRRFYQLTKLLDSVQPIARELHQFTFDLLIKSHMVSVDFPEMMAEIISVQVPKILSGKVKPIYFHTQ

[3] = biological target: T2, Cytochrome P450 1A2 (Homo sapiens, UniProt P05177)
T2 sequence (P05177 whole entry): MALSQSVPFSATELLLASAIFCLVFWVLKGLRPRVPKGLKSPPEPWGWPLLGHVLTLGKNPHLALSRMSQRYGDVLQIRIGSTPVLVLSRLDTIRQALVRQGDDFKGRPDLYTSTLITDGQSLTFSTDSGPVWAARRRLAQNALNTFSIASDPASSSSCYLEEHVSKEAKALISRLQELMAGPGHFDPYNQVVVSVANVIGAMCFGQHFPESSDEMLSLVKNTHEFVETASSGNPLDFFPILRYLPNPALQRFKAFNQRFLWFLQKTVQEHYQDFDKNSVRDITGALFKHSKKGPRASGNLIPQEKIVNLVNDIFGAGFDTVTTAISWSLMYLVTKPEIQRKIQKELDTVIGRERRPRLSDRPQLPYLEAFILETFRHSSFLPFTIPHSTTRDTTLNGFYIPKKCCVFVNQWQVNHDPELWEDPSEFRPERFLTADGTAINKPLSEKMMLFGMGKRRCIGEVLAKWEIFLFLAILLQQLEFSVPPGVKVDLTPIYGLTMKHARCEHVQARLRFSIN

[4] = biological target: Cytochrome P450 2C19 (Homo sapiens, UniProt P33261)
[5] = biological target: T3, Glucocorticoid receptor (Homo sapiens, UniProt P04150); test: biochemical
T3 sequence (P04150 whole entry): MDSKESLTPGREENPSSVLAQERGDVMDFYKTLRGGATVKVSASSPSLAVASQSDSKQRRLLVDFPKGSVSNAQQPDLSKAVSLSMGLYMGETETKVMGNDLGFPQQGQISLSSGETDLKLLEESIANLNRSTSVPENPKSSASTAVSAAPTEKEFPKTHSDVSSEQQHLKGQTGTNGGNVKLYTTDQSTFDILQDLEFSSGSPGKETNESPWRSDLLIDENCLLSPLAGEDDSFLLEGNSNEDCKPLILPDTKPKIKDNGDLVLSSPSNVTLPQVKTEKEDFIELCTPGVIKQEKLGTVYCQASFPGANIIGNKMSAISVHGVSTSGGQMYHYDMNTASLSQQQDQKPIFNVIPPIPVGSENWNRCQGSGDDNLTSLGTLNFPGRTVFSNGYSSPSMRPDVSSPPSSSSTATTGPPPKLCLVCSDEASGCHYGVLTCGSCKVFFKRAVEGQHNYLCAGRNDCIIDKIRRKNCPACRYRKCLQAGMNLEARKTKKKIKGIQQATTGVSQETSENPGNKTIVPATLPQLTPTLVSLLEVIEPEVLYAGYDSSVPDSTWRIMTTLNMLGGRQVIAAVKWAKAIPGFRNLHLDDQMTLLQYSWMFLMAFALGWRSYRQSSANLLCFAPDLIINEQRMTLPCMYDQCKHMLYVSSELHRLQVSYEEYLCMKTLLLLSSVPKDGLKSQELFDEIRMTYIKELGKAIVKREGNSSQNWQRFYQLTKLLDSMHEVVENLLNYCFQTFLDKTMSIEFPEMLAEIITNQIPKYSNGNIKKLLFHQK

[6] = biological target: Cytochrome P450 2C9 (Homo sapiens, UniProt P11712)
[7] = biological target: Cytochrome P450 3A4 (Homo sapiens, UniProt P08684)
Note: in other assays of this panel Not Active means under 50% inhibition at 10 µM.

Chain of Cytochrome P450 2D6 (P10635 whole entry): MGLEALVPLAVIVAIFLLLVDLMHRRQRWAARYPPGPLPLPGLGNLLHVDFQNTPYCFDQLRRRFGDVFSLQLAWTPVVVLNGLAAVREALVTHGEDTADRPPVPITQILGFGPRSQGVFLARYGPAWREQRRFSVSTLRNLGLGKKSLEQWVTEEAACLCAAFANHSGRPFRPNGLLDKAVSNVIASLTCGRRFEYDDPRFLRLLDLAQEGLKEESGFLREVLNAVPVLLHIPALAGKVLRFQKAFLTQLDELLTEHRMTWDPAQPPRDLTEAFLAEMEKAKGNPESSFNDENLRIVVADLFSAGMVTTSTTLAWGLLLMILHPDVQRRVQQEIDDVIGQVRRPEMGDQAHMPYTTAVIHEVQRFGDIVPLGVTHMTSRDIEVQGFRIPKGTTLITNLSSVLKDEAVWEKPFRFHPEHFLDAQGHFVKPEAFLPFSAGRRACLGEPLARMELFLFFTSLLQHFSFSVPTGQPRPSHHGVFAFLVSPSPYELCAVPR
Chain of Cytochrome P450 2C9 (P11712 whole entry): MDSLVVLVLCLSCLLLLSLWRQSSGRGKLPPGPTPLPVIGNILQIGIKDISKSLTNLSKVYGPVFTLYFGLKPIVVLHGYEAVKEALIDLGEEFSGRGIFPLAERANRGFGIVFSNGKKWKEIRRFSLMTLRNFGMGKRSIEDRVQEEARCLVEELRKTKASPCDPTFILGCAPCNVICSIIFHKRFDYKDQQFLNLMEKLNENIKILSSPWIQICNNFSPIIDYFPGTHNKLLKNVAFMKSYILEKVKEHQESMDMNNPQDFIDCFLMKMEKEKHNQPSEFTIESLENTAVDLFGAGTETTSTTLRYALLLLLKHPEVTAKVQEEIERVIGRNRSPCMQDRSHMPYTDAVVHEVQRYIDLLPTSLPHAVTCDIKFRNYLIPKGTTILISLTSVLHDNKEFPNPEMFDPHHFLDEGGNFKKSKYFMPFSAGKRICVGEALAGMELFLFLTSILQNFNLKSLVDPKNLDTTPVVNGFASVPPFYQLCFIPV
Chain of Cytochrome P450 2C19 (P33261 whole entry): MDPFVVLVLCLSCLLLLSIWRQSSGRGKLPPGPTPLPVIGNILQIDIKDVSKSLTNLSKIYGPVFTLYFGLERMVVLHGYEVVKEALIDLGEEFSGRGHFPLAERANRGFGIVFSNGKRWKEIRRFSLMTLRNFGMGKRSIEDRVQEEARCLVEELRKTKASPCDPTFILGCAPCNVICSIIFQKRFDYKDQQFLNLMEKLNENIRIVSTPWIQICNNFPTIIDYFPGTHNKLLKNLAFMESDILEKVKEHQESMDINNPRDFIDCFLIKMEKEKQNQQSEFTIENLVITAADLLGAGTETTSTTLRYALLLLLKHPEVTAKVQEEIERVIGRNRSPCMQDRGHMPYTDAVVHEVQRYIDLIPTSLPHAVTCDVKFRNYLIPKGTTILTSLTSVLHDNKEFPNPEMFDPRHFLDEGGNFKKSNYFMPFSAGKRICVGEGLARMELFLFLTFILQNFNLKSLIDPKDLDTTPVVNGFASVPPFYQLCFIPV
Chain of Cytochrome P450 3A4 (P08684 whole entry): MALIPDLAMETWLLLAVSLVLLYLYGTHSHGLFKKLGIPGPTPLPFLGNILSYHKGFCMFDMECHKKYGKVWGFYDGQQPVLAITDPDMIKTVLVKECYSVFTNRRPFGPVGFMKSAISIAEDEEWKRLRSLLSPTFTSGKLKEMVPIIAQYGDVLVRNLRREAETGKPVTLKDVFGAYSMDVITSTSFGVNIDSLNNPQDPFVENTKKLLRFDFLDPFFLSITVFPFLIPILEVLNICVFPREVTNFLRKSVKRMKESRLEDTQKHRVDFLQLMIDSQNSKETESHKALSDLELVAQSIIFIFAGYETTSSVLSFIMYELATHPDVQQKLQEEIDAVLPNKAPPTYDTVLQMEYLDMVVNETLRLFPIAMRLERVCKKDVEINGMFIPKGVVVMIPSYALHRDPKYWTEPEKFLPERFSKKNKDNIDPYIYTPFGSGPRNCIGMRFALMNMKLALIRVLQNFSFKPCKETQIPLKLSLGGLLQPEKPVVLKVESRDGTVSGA

Molecule	IC50 [2]	IC50 [4]	further results
CC(CCc1ccccc1)NCC(O)c1ccc(O)c(C(N)=O)c1 (stereo not given) [LABETALOL]			IC50 [1]: 800 nM
IVERMECTIN	Not Active		Ki [2]: Not Active
CN(N=O)C(=O)N[C@@H](C=O)[C@@H](O)[C@H](O)[C@H](O)CO [STREPTOZOCIN]	Not Active		
O=C1c2c(O)ccc(O)c2C(=O)c2c(NCCNCCO)ccc(NCCNCCO)c21 [MITOXANTRONE]	Not Active		
CN1CCN2c3ccccc3Cc3ccccc3C2C1 (stereo not given) [MIANSERIN]	Not Active		
CSc1ccc2c(c1)N(CCC1CCCCN1C)c1ccccc1S2 (stereo not given) [THIORIDAZINE]		6380 nM	IC50 [3]: 9330 nM
Clc1ccccc1C(c1ccccc1)(c1ccccc1)n1ccnc1 [CLOTRIMAZOLE]		16 nM	IC50 [5]: 3260 nM; Ki [5]: 1480 nM; IC50 [6]: 16 nM
CC(C)(O)c1ccccc1CC[C@@H](SCC1(CC(=O)O)CC1)c1cccc(/C=C/c2ccc3ccc(Cl)cc3n2)c1 [MONTELUKAST]	Not Active		
C[C@]12Cc3c[nH]nc3C[C@@H]1CC[C@@H]1[C@@H]2CC[C@@]2(C)[C@H]1CC[C@]2(C)O [STANOZOLOL]		48 nM	IC50 [6]: 1130 nM; IC50 [1]: 9270 nM
CC(=O)S[C@@H]1CC2=CC(=O)CC[C@]2(C)[C@H]2CC[C@@]3(C)[C@@H](CC[C@@]34CCC(=O)O4)[C@H]12 [SPIRONOLACTONE]		3000 nM	IC50 [5]: 1900 nM; Ki [5]: 865 nM
CN(C)[C@@H]1C(O)=C(C(N)=O)C(=O)[C@@]2(O)C(O)=C3C(=O)c4c(O)cccc4[C@@](C)(O)[C@H]3C[C@@H]12 [TETRACYCLINE]	Not Active		
COc1c(C)c2c(c(O)c1C/C=C(\C)CCC(=O)OCCN1CCOCC1)C(=O)OC2 [MYCOPHENOLATE MOFETIL]	Not Active		
C=CC[C@@H]1/C=C(\C)C[C@H](C)C[C@H](OC)[C@H]2O[C@@](O)(C(=O)C(=O)N3CCCC[C@H]3C(=O)O[C@H](/C(C)=C/[C@@H]3CC[C@@H](O)[C@H](OC)C3)[C@H](C)[C@@H](O)CC1=O)[C@H](C)C[C@@H]2OC [TACROLIMUS ANHYDROUS]	Not Active		IC50 [7]: 1000 nM
c1ccc2[nH]c(-c3cscn3)nc2c1 [THIABENDAZOLE]	Not Active		IC50 [3]: 800 nM
COc1cccc(C2(O)CCCCC2CN(C)C)c1 (stereo not given) [TRAMADOL]	Not Active		
NNc1ccccc1 [PHENYLHYDRAZINE]		5000 nM	IC50 [3]: 8000 nM; IC50 [6]: 6000 nM; IC50 [1]: 3000 nM
